From ChEMBL document CHEMBL1201862, “PubChem BioAssay data set” (2004)
Values joined by “and” are separate entries in the source; they are usually repeats but may differ in a detail not shown here. Equal entries are not always repeated. Active and inactive are the calls of the source.

Experiments:
[1] = biological target: T1, Protein skinhead-1 (Caenorhabditis elegans, UniProt P34707); assay type: functional
T1 sequence (P34707 whole entry): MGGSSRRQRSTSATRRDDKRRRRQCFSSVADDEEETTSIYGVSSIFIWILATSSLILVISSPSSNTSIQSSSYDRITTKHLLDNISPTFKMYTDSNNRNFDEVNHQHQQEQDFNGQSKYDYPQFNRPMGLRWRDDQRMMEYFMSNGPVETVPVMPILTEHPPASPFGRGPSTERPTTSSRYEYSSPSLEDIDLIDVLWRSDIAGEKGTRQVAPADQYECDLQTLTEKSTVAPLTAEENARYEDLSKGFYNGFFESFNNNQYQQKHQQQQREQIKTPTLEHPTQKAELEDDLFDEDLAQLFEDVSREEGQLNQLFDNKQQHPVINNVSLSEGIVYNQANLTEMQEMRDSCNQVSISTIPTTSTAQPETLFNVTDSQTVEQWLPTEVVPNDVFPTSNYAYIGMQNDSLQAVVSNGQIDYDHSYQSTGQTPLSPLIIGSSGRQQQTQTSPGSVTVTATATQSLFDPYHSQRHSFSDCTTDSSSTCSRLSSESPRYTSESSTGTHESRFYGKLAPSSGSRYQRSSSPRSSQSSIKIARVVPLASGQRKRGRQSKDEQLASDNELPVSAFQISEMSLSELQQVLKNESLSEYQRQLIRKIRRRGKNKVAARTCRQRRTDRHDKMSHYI

[2] = biological target: T2, Heat shock factor protein 1 (Mus musculus, UniProt P38532); test: enhancement of HSF1-driven luciferase signal – cell-based, NIH3T3, luminescence, dose retest, confirmation (AID 435004); assay type: functional;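 also: stress induced by proteasome inhibitor MG132 added 30 min after compound; luciferase reporter driven by HSF1 response element in NIH3T3 cells; actives raise luminescence as potentiators of the MG132 stress response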
T2 sequence (P38532 whole entry): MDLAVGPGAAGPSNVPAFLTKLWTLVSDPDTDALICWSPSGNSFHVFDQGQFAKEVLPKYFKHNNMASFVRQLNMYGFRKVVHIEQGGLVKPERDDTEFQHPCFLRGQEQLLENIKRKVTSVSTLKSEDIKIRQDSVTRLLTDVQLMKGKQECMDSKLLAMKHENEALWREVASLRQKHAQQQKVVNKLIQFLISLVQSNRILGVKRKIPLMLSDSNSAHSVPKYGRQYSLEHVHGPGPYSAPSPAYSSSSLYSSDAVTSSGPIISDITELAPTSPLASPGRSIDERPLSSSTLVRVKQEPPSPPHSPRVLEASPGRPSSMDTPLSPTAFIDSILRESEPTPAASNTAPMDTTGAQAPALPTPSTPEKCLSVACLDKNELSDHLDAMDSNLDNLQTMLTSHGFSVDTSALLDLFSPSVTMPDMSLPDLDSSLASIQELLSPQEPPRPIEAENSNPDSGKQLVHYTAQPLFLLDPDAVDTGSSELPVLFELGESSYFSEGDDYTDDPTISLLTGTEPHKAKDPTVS

[3] = tested on: INS1; test: INS-1E survival protection against cytokine death – cell-based, luminescence, retest, dose response (AID 449756); assay type: functional; details: Rattus norvegicus;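 also: cell death triggered by IL-1 beta plus TNF-alpha plus IFN-gamma mixture; protective hits raise ATP signal compared with cytokine alone wells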
[4] = biological target: Cytochrome P450 2D6 (Homo sapiens, UniProt P10635);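 also: CYP2D6 member of a cytochrome P450 panel assay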
[5] = biological target: T3, RNA-binding protein pos-1 (Caenorhabditis elegans, UniProt G5EF15); test: disruptors of C. elegans POS-1 RNA interaction – biochemical, fluorescence polarization, dose response (AID 1964);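 also: purified POS-1 fused to maltose binding protein made in E. coli; potency of compounds blocking POS-1 binding to fluorescent RNA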
T3 sequence (G5EF15 whole entry): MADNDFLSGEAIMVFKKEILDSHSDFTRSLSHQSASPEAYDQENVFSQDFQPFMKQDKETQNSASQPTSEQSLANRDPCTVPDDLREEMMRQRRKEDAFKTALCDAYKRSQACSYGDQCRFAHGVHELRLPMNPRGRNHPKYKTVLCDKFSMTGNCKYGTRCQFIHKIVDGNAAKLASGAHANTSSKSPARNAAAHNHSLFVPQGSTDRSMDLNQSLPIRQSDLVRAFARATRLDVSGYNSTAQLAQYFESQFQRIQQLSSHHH

[6] = biological target: T4, Zinc finger protein mex-5 (Caenorhabditis elegans, UniProt Q9XUB2); test: potency of MEX-5 RNA-binding blockers – biochemical, C. elegans, fluorescence polarization, dose response (AID 1960)
T4 sequence (Q9XUB2 whole entry): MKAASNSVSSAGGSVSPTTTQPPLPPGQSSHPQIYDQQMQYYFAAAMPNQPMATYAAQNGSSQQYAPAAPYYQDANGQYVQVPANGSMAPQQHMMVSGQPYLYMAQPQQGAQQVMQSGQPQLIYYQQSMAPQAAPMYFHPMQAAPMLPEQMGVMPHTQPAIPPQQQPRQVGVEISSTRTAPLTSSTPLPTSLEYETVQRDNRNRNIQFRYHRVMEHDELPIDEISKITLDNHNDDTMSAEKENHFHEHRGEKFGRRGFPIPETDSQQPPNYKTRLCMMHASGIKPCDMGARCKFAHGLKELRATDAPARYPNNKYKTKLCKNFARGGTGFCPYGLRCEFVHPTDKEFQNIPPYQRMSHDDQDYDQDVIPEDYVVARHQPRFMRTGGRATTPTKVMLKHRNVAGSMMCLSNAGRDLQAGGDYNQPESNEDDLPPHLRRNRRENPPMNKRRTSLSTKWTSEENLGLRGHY

[7] = P. falciparum Dd2 growth inhibitors, dose response, SYBR Green, cherry-picked samples (AID 1159567); assay type: functional, cell-based
[8] = biological target: Cytochrome P450 3A4 (Homo sapiens, UniProt P08684);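 also: CYP3A4 tested as one member of a cytochrome P450 panel screen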
[9] = biological target: T5, Cytochrome P450 1A2 (Homo sapiens, UniProt P05177);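 also: PubChem cytochrome P450 panel assay, CYP1A2 panel member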
T5 sequence (P05177 whole entry): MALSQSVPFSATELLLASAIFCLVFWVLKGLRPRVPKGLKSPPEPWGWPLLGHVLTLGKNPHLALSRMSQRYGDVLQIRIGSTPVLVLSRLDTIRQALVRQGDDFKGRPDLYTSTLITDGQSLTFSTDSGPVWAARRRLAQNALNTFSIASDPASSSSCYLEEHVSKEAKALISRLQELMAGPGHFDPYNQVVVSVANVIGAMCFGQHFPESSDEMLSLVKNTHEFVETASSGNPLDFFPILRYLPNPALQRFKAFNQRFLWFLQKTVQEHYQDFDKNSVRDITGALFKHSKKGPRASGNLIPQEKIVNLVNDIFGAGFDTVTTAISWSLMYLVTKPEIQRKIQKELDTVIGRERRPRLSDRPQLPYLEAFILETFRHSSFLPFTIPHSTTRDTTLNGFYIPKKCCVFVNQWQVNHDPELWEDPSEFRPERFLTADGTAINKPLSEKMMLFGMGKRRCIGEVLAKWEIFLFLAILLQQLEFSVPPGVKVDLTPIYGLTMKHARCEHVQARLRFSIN

[10] = biological target: Cytochrome P450 2C19 (Homo sapiens, UniProt P33261); test: Cytochrome panel assay with activity outcomes. Panel member name: p450-cyp2c19 Compounds with AC50 equal or less than 10 uM are considered active; assay type: functional; details: read-out: AC50
[11] = biological target: Cytochrome P450 2C9 (Homo sapiens, UniProt P11712)
Sequence of Cytochrome P450 2C9 (P11712 whole entry): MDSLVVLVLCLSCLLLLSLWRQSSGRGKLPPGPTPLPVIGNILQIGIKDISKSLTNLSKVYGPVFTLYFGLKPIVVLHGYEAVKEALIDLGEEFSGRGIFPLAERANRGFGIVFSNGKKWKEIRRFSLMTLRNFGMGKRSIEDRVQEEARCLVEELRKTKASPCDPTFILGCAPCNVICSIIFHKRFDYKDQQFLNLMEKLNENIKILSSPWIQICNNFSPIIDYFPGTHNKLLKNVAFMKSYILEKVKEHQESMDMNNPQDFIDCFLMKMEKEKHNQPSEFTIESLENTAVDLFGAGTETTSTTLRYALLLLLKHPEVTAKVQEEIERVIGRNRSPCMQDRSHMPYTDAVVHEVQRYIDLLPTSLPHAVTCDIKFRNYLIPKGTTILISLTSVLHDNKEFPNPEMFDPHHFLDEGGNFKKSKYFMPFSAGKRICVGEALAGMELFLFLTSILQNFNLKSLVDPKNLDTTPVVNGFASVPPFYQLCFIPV

Sequence of Cytochrome P450 2D6 (P10635 whole entry, the tested form may be a part): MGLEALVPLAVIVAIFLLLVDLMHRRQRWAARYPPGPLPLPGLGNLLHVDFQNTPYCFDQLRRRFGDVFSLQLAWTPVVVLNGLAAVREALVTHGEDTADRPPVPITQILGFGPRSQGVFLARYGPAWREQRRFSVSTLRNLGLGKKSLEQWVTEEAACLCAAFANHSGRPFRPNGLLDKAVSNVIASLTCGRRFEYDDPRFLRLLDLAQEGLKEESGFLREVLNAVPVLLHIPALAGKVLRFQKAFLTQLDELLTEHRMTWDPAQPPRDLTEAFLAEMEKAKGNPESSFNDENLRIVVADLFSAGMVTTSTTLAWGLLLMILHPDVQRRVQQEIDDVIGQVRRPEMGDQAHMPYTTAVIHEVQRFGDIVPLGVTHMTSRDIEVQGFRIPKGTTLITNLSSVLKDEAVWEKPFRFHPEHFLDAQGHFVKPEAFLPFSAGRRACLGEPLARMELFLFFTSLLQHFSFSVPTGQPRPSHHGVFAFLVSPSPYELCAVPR
Sequence of Cytochrome P450 2C19 (P33261 whole entry): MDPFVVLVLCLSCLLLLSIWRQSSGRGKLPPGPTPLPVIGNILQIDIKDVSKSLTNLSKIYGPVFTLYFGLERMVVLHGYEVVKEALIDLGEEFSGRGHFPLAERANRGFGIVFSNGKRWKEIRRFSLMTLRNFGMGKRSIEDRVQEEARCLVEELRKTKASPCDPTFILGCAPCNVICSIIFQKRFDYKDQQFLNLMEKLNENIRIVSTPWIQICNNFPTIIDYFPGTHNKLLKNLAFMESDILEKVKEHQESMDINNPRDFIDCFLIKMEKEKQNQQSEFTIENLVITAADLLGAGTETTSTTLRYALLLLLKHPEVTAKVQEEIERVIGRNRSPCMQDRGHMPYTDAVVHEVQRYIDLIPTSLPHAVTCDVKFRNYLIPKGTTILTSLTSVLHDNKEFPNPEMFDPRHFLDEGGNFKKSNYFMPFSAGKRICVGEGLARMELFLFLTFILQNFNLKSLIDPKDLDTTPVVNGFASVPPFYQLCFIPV
Sequence of Cytochrome P450 3A4 (P08684 whole entry): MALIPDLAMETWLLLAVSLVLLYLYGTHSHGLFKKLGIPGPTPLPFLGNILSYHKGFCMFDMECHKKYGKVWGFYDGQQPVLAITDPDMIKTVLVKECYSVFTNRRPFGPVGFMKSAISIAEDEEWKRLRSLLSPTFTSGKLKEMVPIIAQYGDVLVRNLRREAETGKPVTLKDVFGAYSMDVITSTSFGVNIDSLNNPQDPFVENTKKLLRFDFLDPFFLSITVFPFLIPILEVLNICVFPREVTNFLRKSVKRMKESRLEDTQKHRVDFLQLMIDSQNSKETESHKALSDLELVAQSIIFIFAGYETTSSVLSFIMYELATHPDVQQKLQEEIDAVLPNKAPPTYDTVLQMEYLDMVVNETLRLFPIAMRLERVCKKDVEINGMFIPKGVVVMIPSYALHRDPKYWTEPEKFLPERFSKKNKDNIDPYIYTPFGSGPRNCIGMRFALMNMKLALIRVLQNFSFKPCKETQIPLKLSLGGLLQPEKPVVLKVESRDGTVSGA

## c1ccc(-c2noc(-c3cccc4ccccc34)n2)cc1
[1]
  IC50: 18.8 µM (active)

## Fc1ccc(-c2nc(-c3cnccn3)no2)c(Cl)c1
[2]
  EC50: > 260 µM (inactive)
[1]
  IC50: > 100 µM (inactive)

## CC(C)c1cccc(C(C)C)c1OC(=O)[C@H]1OC(C(C)(C)C)=C[C@@H]1c1ccccc1
[3]
  AC50: 7.46 µM (active)

## C[C@H](N)Cc1c[nH]c2ccc(O)cc12
[4]
  AC50: 15.8 µM (inconclusive) and 39.8 µM (inconclusive)

## CC1(OC(=O)c2cccs2)C(=O)C=C2C=C(c3ccc(C#N)cc3)OC=C2C1=O (centres undefined)
[5]
  EC50: 93.2 µM (active)
[6]
  EC50: 31.3 µM (active)

## O=C(C1=C[C@@H](c2ccc(C(F)(F)F)cc2)C[C@@H](OCCCCO)O1)N1CCN(Cc2ccccc2)CC1
[3]
  AC50: 5.94 µM (active)

## Cc1ccc(NC(=O)c2c(Cl)n(C)c3ccccc23)cc1
[2]
  EC50: 31.5 µM (active)

## CCC(=O)c1ccc(OCC(O)CN2CCN(S(=O)(=O)N3CCCCC3)CC2)cc1 (centres undefined)
[1]
  IC50: > 100 µM (inactive)

## CCOC(=O)/C=C/C(=O)N1CCc2ccccc21
[2]
  EC50: 24.7 µM (active)

## Clc1ccc(OCCCCCN2CCOCC2)cc1
[1]
  IC50: 53.9 µM (inactive)

## O=C(N/N=C\c1cc([N+](=O)[O-])ccc1N1CCCC1)c1ccccn1
[5]
  EC50: 149 µM (inconclusive)
[6]
  EC50: 70.5 µM (inconclusive)

## Cc1nc(Sc2ccc(Br)cc2)c(C#N)c(C)c1[N+](=O)[O-]
[2]
  EC50: 125 µM (active)

## COCC(=O)Nc1ccc2c(c1)C(=O)N(C)C[C@H](OC)[C@H](C)CN(Cc1cc(F)ccc1F)[C@H](C)CO2
[7]
  AC50: 3.74 µM (active)

## COC(=O)c1ccc(Nc2cc(C)nc3ncnn23)cc1
[1]
  IC50: > 100 µM (inactive)

## CCOc1ccc(CN(C)C(=O)CNC(=O)c2ccc3ccccc3c2)cc1OC
[2]
  EC50: > 260 µM (inactive)

## Cc1ccc(-c2ccccc2)n1-c1ccc(C(=O)O)cc1
[5]
  EC50: > 300 µM (not active)
[6]
  EC50: > 300 µM (not active)

## CCCn1nc2cc(C(=O)NCc3ccc(OC(F)(F)F)cc3)ccc2c1OCC
[1]
  IC50: 16.4 µM (active)

## COc1cccc(Cn2c(=O)c(-c3ccc(Cl)cc3)nc3cnc(N4CCNCC4)nc32)c1
[8]
  AC50: 15.8 µM (inconclusive)
[4]
  AC50: 39.8 µM (inconclusive)

## CCCNC(=O)N1[C@H](C#N)[C@@H](c2ccccc2C2=CCCC2)[C@@H]1CO
[7]
  AC50: 7.07 µM (active)

## O=C(c1cccnc1)C1Cc2ccccc2C1=O (centres undefined)
[1]
  IC50: > 100 µM (inactive)

## O=C(O)CCCCCNC(=O)c1ccncc1
[9]
  AC50: 0.01 µM (inconclusive)
[10]
  AC50: 39.8 µM (inconclusive)
[11]
  AC50: 25.1 µM (inconclusive)

## O=C(C[C@@H]1C[C@H]2c3cc(NS(=O)(=O)c4ccc(F)cc4)ccc3O[C@H]2[C@H](CO)O1)N1CCc2ccccc2C1
[7]
  AC50: 9.73 µM (active)
